Data as given in US8765054B2, “Process for treatment of residual nucleic acids present on the surface of laboratory consumables” (EMD Millipore Corporation, priority 2010, dated 2014).

How the values were obtained:
[1] = tested on: RNA (P. acnes, P. aeruginosa); assay: Residual free RNA on 1.5 ml polypropylene tubes after treatment, determined by TMA; design: key to the marks not given beside the values
Procedure: (§1) Several consumables consisting of 1.5 ml polypropylene tubes were contaminated in parallel with a known quantity of DNA, RNA or microorganisms. These consumables were then gamma-sterilized (doses from 0 to 60 kGy) or treated with ethylene oxide in gaseous phase. After sterilization, the presence of residual nucleic acids is determined by PCR (for DNA) and TMA (for RNA) and compared with an unsterilized control consumable.
(§2) Several consumables of the same type as those used in protocol 1 were contaminated with the same known quantity of DNA, RNA or microorganisms. These consumables were then treated by a treatment with hydrogen peroxide made in liquid solution (respectively 3% and 30% H2O2). The hydrogen peroxide is evaporated at the end of the process by virtue of a step of drying under vacuum at a temperature of 60° C. After treatment, the presence of residual nucleic acids was determined by PCR (for DNA) and TMA (for RNA) and compared with an untreated sample.

[2] = tested on: DNA (E. coli, P. aeruginosa); assay: Residual free DNA on 1.5 ml polypropylene tubes after treatment, determined by PCR
Procedure: as §1, §2

[3] = tested on: Germs (E. coli, P. aeruginosa); assay: Residual DNA contained in microorganisms (germs) on tubes after treatment, determined by PCR; type: cell-based
Procedure: as §1, §2
(§3) Several consumables of the same type as those used in protocol 1 were contaminated with the same known quantity of DNA, RNA or microorganisms. A proportion of those consumables was then treated according to the invention with gaseous ethylene oxide followed by the 3% or 30% hydrogen peroxide. A further proportion was treated with gamma radiation instead of with the gaseous ethylene oxide then with hydrogen peroxide. In both cases, the hydrogen peroxide was evaporated by virtue of a vacuum drying step at a temperature of 60° C. After treatment, the presence of residual nucleic acids was determined by PCR (for DNA) and TMA (for RNA) and compared with an untreated sample.

[4] = tested on: Germs (P. acnes, P. aeruginosa); assay: Residual RNA contained in microorganisms (germs) on tubes after treatment, determined by TMA; type: cell-based
Procedure: as §1, §2, §3

[5] = Protocol 2, liquid H2O2, minimum time of action 40 min at 60° C.

Structure (SMILES) | Effectiveness of the residual nucleic acid treatment, RNA (TMA) ([1]; Protocol 1, free RNA, P. acnes, P. aeruginosa, vs unsterilized control) | Effectiveness of the residual nucleic acid treatment, DNA (PCR) ([2]; Protocol 1, free DNA, E. coli, P. aeruginosa, vs unsterilized control) | Effectiveness of the residual nucleic acid treatment, Germs (PCR) ([3]; Protocol 1, DNA in microorganisms, E. coli, P. aeruginosa) | Effectiveness of the residual nucleic acid treatment, Germs (TMA) ([4]; Protocol 1, RNA in microorganisms, P. acnes, P. aeruginosa) | Effectiveness of the residual nucleic acid treatment, RNA (TMA) [1, 5] | Effectiveness of the residual nucleic acid treatment, DNA (PCR) [2, 5] | Effectiveness of the residual nucleic acid treatment, Germs (PCR) [3, 5] | Effectiveness of the residual nucleic acid treatment, Germs (TMA) [4, 5]
C1CO1 [EO, ethylene oxide] | +++ | + | + | − |  |  |  | 
OO [H2O2 30%, hydrogen peroxide] |  |  |  |  | +++ | +++ | − | −
OO [H2O2 3%, hydrogen peroxide] |  |  |  |  | ++ | ++ | − | −
